Laboratory results as given in patent US3960859A, “21-Deoxydihydroajmaline derivatives” (VEB Arzneimittelwerk Dresden, priority 1975, dated 1976).
Structures can show the parent of a compound that is named as a salt.

Assays:
[1] = background statement; cited from earlier work
[2] = test system: aconitine-induced ventricular extrasystoles; experiment: Aconitine test procedures carried out in rats (antiarrhythmic activity); assay type: in vivo
Source text: (§1) In the procedures the term ED20 designates the dose in mg/kg at which only isolated or sporadic ventricular extrasystoles occur.

[3] = in vivo; conditions: for Q: Table 1, ratio not defined in text (equals LD50/ED20)
Source text: as §1

[4] = test system: fibrillation or flutter generated by aconitine; assay type: in vivo; conditions: dog

Compound | rhythm regulating / antiarrhythmic activity (in words) [1] | ED20 ([2]; Rattus norvegicus) [mg/kg] | Q [3] | LD50 ([3]; rat, in vivo) [mg/kg] | side effects ([4]; Example 3 (0.6 mg/kg)) | therapeutic effectiveness against aconitine fibrillation or flutter ([4]; Example 3 at 0.6 mg/kg compared with N-propylajmaline at 0.3 mg/kg) | ED20 ([2]; aconitine test, rats, dose at which only isolated or sporadic ventricular extrasystoles occur) [mg/kg] | LD50 ([3]; Table 1, aconitine test procedures in rats, unit not given) | undesirable side effects, share of cases ([4]; N-propylajmaline (0.3 mg/kg))
CCC(C)C1CC2NC3CC4(c5ccccc5N(C)C24)C(O)C31 (stereo not shown) [21-deoxydihydroajmaline] | rhythm regulating activity is extensively lost | – | – | – | – | – | – | – | –
CC[C@H]1[C@@H]2C[C@H]3[C@@H]4N(C)c5ccccc5[C@]45C[C@@H]([C@H]2[C@H]5O)N3[C@@H]1O [Ajmaline, ajmaline] | valuable antiarhythmic properties | 2.13 | 12.2 | 26 | – | – | – | – | –
CCC(C)C1CC2C3N(C)c4ccccc4C34CC(C1C4O)N2CCN1CCCCC1 (stereo not drawn) [Example 3, 4-(β-piperidinoethyldeoxydihydroajmaline-dihydrochloride)] | – | 0.25 | 21.6 | 5.4 | no side effects | about the same therapeutic effectiveness as N-propylajmaline administered in a dose of 0.3 mg/kg | – | – | –
CCC[N+]12[C@H](O)[C@@H](CC)[C@@H]3C[C@H]1[C@@H]1N(C)c4ccccc4[C@]14C[C@H]2[C@@H]3[C@H]4O [N-Propylajmaline, N-propylajmaline] | – | – | – | – | – | – | 0.17 | 1.4 | at least 30%
